Data taken from article PMC10893357 (Viruses, 2024).

Legend:
Assay type in all cases: cell-based
[1] = tested on: SARS-CoV-2 Omicron, XBB 1.5 hCoV-19/Russia/SAK-SRC-8527/2023; experiment: Antiviral CPE reduction assay in Vero E6 cells, Omicron XBB.1.5; conditions: Severe acute respiratory syndrome coronavirus 2, Vero C1008, 96 h
[2] = tested on: SARS-CoV-2 Omicron, BA.1 hCoV-19/Russia/Moscow171619-031221/2021; experiment: Antiviral CPE reduction assay in Vero E6 cells, Omicron BA.1; conditions: Severe acute respiratory syndrome coronavirus 2, Vero C1008, 96 h
[3] = tested on: SARS-CoV-2 Omicron, BA 5.2 hCov-19/Russia/Moscow-49415/2022; experiment: Antiviral CPE reduction assay in Vero E6 cells, Omicron BA.5.2; conditions: Severe acute respiratory syndrome coronavirus 2, Vero C1008, 96 h
[4] = Cytotoxicity (MTT) in Vero E6 cells; conditions: African green monkey
[5] = tested on: SARS-CoV-2 Wuhan, lineage B.1.1 hCoV-19/Russia/Omsk202118_1707/2020; experiment: Antiviral CPE reduction assay in Vero E6 cells, Wuhan; conditions: Severe acute respiratory syndrome coronavirus 2, Vero C1008, 96 h
[6] = tested on: SARS-CoV-2 Delta, lineage B.1.617.2 hCoV-19/Russia/PSK-2804/2021; experiment: Antiviral CPE reduction assay in Vero E6 cells, Delta; conditions: Severe acute respiratory syndrome coronavirus 2, Vero C1008, 96 h
[7] = tested on: SARS-CoV-2 Omicron lineage BQ.1.1 hCoV-19/Russia/TOM-SRC-8663/2023; experiment: Antiviral CPE reduction assay in Vero E6 cells, Omicron BQ.1.1; conditions: Severe acute respiratory syndrome coronavirus 2, Vero C1008, 96 h

SMILES	EC50 [1] [µM]	EC50 [2] [µM]	EC50 [3] [µM]	CC50 at 4 days [4] [µM]	EC50 [5] [µM]	EC50 [6] [µM]	EC50 [7] [µM]
CC(=O)C1=C(O)C=C2Oc3c(-c4csc(N/N=C/c5ccc(Br)s5)n4)c(O)c(C)c(O)c3[C@@]2(C)C1=O [(+)-3e]	22.4 ± 2	20.7 ± 1.6	20 ± 1.6	350 ± 21.2	25.3 ± 2.2	41.5 ± 3.1	32.2 ± 2.6
CCC(CC)COC(=O)[C@H](C)N[P@](=O)(OC[C@H]1O[C@@](C#N)(c2ccc3c(N)ncnn23)[C@H](O)[C@@H]1O)Oc1ccccc1 [Remdesivir, reference compound]	2.65 ± 0.6	2 ± 0.13	4.45 ± 1	711 ± 21.2	3.8 ± 0.42	2.1 ± 0.16	3.13 ± 0.9
